Data reported in patent US20230406883A1, “COMPOUNDS AND THEIR USE IN TREATMENT OF TACHYKININ RECEPTOR MEDIATED DISORDERS” (Embark Biotech ApS, priority 2020, published 2023).
Several values for one entry are separate records, joined by “and”; a condition that tells them apart may be missing. Equal entries are not always repeated. Numbered stars: 1 amine (or outer) side, 2 acyl side, 3 side chain; on linkers, the order of the positions; unused ones are H or OH. Square brackets hold non-standard residues; d marks the D form. Peptide text beside a SMILES is read from it. * marks the point of attachment. C18 diacid = O=C(O)CCCCCCCCCCCCCCCCC(=O)*; γGlu = O=C(O)[C@H](CCC(=O)[*:2])N[*:1]; mTyr = N[C@@H](Cc1cccc(O)c1)C(=O)O; NMeL = CN[C@@H](CC(C)C)C(=O)O; hSer = N[C@@H](CCO)C(=O)O; Nle = CCCC[C@H](N)C(=O)O; AEEA = NCCOCCOCC(=O)O; βAla = NCCC(=O)O

What was measured:
Assay in all cases: IP3 assay (inositol trisphosphate, 3H-myoinositol) in transiently transfected COS-7 cells
Format in all cases: cell-based
hNK3R = molecular target: T1, hNK3R (Homo sapiens, UniProt P29371); details: COS-7 cells; for EC50: 0.2% ovalbumin buffer, read-out: hNK3, IP3 EC50; for hNK3, IP3 Efficacy: figure legends: percent of 10^-6 M NKA
T1 construct: host or cells: COS-7
T1 sequence (P29371 1-465): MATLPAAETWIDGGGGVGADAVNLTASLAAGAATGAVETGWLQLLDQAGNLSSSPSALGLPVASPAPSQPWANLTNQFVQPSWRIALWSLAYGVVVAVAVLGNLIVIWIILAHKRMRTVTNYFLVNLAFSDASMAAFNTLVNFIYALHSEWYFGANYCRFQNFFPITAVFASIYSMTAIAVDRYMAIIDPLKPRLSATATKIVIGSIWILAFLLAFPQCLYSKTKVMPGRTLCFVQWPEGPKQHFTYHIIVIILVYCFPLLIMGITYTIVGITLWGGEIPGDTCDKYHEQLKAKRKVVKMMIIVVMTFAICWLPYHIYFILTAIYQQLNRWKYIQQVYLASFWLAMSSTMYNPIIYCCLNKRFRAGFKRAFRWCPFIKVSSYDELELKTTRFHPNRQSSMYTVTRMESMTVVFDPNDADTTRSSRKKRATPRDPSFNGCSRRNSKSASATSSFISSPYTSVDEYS
Experimental: (§1) Agonist-induced G-protein coupled receptor (GPCR) activation was measured by an Inositol-1,4,5-Trisphosphate [^3H] Radioreceptor Assay (IPs Assay). Assays were carried out using COS-7 cells transiently transfected by calcium phosphate transfection with a vector pcDNA3.1(+) encoding one of the indicated receptors (Genscript). Briefly, DNA mixed with CaCl2 (2 M) and TE-buffer (10 mM Tris-HCl, 1 mM EDTA, pH 7.5) was dropwise added to 2×HBS (50 mM HEPES, 280 mM NaCl, 1.5 mM NaH2PO4, pH 7.2) and incubated for 45 min at room temperature (22±2° C.). The mixture and a final concentration of 100 μM Chloroquine were added to the cells and left to incubate for 5 hours at 37° C. under standard cell culture conditions (10% CO2) before changing medium to fresh medium containing 5 μl/mL Myo-[2-^3H(N)]-inositol (labelling medium).
(§2) The IP3 assay takes advantage of the tachykinin receptors' ability to induce production of the inositol trisphosphate (IP3) second messenger upon agonist (ligand) binding on receptor expressing cells following an initial ^3H-inositol labelling period. In effect this means that production of the second messenger IP3 as a measure of receptor activity can be assessed by counting ^3H-activity.
(§3) Assay solutions used: Wash buffer (HBSS), Assay buffer (HBSS+10 mM LiCl and 0,2% w/v ovalbumin), Lysis buffer (10 mM formic acid), and SPA YSI beads (12.5 mg/ml in H2O). The assay was performed the day after transfection. Briefly, labelling medium was aspirated, and plates were washed ×1 in wash buffer before adding 100 μl assay buffer, pre-incubated for 30 min followed by 120 min incubation with agonist, both at 37° C. After incubation, plates were immediately placed on ice and the incubation medium was aspirated and 40 μl of 10 mM formic acid per well was added. Plates were incubated for at least 30 min on ice. 60 μl (1 mg/well) SPA YSI beads/well was pipetted into a solid white 96 wells plate and 35 μl of the lysis solution was transferred to the plate before covering plates with seal cover and shaking for 10 min. (max speed). Centrifuge plates and leave for 8 hours at room temperature before counting the plates in a MicroBeta plate counter (Perkin Elmer).

hNK1R = molecular target: T2, hNK1R (Homo sapiens, UniProt P25103); details: COS-7 cells; for EC50: 0.2% ovalbumin buffer; for hNK1R, IP3 Efficacy: figure legends: percent of 10^-6 M NKA
T2 construct: host or cells: COS-7
T2 sequence (P25103 whole entry): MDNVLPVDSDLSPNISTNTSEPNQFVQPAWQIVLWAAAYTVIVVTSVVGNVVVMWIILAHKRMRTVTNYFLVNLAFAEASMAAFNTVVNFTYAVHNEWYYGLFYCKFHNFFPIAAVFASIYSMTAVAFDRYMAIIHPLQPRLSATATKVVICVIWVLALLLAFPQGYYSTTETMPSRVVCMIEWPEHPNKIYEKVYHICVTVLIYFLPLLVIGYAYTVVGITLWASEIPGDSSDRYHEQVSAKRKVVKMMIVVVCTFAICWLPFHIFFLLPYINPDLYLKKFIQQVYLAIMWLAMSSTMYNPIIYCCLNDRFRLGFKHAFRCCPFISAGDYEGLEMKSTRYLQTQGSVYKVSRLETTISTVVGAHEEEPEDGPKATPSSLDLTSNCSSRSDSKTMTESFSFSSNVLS
Experimental: as §1, §2, §3

hNK2R = molecular target: T3, hNK2R (Homo sapiens, UniProt P21452); details: for EC50 / hNK2R, IP3 Efficacy: COS-7 cells; for EC50: 0.2% ovalbumin buffer; for hNK2R, IP3 Efficacy: figure legends: percent of 10^-6 M NKA
T3 construct: host or cells: COS-7
T3 sequence (P21452 1-398): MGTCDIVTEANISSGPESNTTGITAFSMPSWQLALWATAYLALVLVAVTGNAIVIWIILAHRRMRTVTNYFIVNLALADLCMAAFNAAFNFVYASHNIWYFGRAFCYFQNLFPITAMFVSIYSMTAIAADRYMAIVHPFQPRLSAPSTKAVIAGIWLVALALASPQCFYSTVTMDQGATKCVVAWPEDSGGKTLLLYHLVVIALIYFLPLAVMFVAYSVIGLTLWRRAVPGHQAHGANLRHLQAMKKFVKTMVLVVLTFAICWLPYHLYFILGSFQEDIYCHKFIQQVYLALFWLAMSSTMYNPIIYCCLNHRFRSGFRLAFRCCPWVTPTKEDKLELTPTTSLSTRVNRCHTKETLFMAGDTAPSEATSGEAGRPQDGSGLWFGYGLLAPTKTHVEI
Experimental: as §1, §2, §3

| Structure (SMILES) | EC50 (hNK3R) | hNK3, IP3 Efficacy (hNK3R) | EC50 (hNK1R) | hNK1R, IP3 Efficacy (hNK1R) | EC50 (hNK2R) | hNK2R, IP3 Efficacy (hNK2R) | hNK2R receptor activation, in words (hNK2R) |
| --- | --- | --- | --- | --- | --- | --- | --- |
| CCCC[C@H](NC(=O)[C@H](CC(C)C)N(C)C(=O)CNC(=O)[C@@H](NC(=O)[C@H](Cc1ccccc1)NC(=O)[C@H](CCCNC(=N)N)NC(=O)[C@H](CCC(=O)O)NC(=O)COCCOCCNC(=O)COCCOCCNC(=O)CC[C@H](NC(=O)CCCCCCCCCCCCCCCCC(=O)O)C(=O)O)C(C)C)C(N)=O [compound 337, *Glu;Arg;Phe;Val;Gly;NmLeu;Nle;NH2] ({C18 diacid-γGlu-AEEA-AEEA}-ERFVG[NMeL][Nle]-NH2) | 43 nM | 100% | 23 nM | 70% | 4 nM and 1.3 nM | 80% | – |
| CCCC[C@H](NC(=O)[C@H](CC(C)C)N(C)C(=O)CNC(=O)[C@@H](NC(=O)[C@H](Cc1cccc(O)c1)NC(=O)[C@H](CCCCN)NC(=O)[C@H](CC(=O)O)NC(=O)COCCOCCNC(=O)COCCOCCNC(=O)CC[C@H](NC(=O)CCCCCCCCCCCCCCCCC(=O)O)C(=O)O)C(C)C)C(N)=O [compound 361, *Asp;Lys;3-OH-Phe;Val;Gly;NmLeu;Nle;NH2] ({C18 diacid-γGlu-AEEA-AEEA}-DK[mTyr]VG[NMeL][Nle]-NH2) | ~47000 nM | 60% | 200 nM | 70% | 2.3 nM | 100% | – |
| CCCC[C@H](NC(=O)[C@H](CC(C)C)N(C)C(=O)CNC(=O)[C@@H](NC(=O)[C@H](Cc1ccccc1)NC(=O)[C@H](CCCCN)NC(=O)[C@H](CC(=O)O)NC(=O)COCCOCCNC(=O)COCCOCCNC(=O)CC[C@H](NC(=O)CCCCCCCCCCCCCCCCC(=O)O)C(=O)O)[C@@H](C)O)C(N)=O [compound 387, *Asp;Lys;Phe;Thr;Gly;NmLeu;Nle;NH2] ({C18 diacid-γGlu-AEEA-AEEA}-DKFTG[NMeL][Nle]-NH2) | 34 nM | 100% | 5.5 nM | 100% | 3.3 nM | 100% | – |
| CCCC[C@H](NC(=O)[C@H](CC(C)C)N(C)C(=O)CNC(=O)[C@@H](NC(=O)[C@H](Cc1ccccc1)NC(=O)[C@H](CCCCN)NC(=O)[C@H](CCC(=O)O)NC(=O)COCCOCCNC(=O)COCCOCCNC(=O)CC[C@H](NC(=O)CCCCCCCCCCCCCCCCC(=O)O)C(=O)O)[C@@H](C)O)C(N)=O [compound 397, *Glu;Lys;Phe;Thr;Gly;NmLeu;Nle;NH2] ({C18 diacid-γGlu-AEEA-AEEA}-EKFTG[NMeL][Nle]-NH2) | – | 0% | – | 0% | 28 nM | 75% | – |
| CCCC[C@H](NC(=O)[C@H](CC(C)C)NC(=O)CCNC(=O)[C@@H](NC(=O)[C@H](Cc1ccccc1)NC(=O)[C@H](CO)NC(=O)[C@H](CC(=O)O)NC(=O)[C@@H](NC(=O)[C@H](CCCCN)NC(=O)COCCOCCNC(=O)COCCOCCNC(=O)CC[C@H](NC(=O)CCCCCCCCCCCCCCCCC(=O)O)C(=O)O)[C@@H](C)O)C(C)C)C(N)=O [compound 322, *Lys;Thr;Asp;Ser;Phe;Val;bAla;Leu;Nle;NH2] ({C18 diacid-γGlu-AEEA-AEEA}-KTDSFV[βAla]L[Nle]-NH2) | ~160 nM | 80% | – | 0% | ~130 nM | 53% | – |
| COCC[C@H](NC(=O)[C@H](CC(C)C)N(C)C(=O)CNC(=O)[C@@H](NC(=O)[C@H](Cc1ccccc1)NC(=O)[C@H](CCCCN)NC(=O)[C@H](CC(=O)O)NC(=O)COCCOCCNC(=O)COCCOCCNC(=O)CC[C@H](NC(=O)CCCCCCCCCCCCCCCCC(=O)O)C(=O)O)C(C)C)C(N)=O [compound 384, *Asp;Lys;Phe;Val;Gly;NmLeu;Metox;NH2] ({C18 diacid-γGlu-AEEA-AEEA}-DKFVG[NMeL][hSer](Me)-NH2) | 10 nM | 85% | 16 nM | 80% | 0.9 nM | 95% | – |
| COCC[C@H](NC(=O)[C@H](CC(C)C)N(C)C(=O)CNC(=O)[C@@H](NC(=O)[C@H](Cc1ccc(O)cc1)NC(=O)[C@H](CCCCN)NC(=O)[C@H](CCC(=O)O)NC(=O)COCCOCCNC(=O)COCCOCCNC(=O)CC[C@H](NC(=O)CCCCCCCCCCCCCCCCC(=O)O)C(=O)O)[C@@H](C)O)C(N)=O [compound 381, *Glu;Lys;Tyr;Thr;Gly;NmLeu;Metox;NH2] ({C18 diacid-γGlu-AEEA-AEEA}-EKYTG[NMeL][hSer](Me)-NH2) | – | 0% | – | 0% | 9.3 nM | 85% | – |
| CCCC[C@H](NC(=O)[C@H](CC(C)C)N(C)C(=O)CNC(=O)[C@H](CO)NC(=O)[C@H](Cc1ccc(O)cc1)NC(=O)[C@H](CCCCN)NC(=O)[C@H](CC(=O)O)NC(=O)COCCOCCNC(=O)COCCOCCNC(=O)CC[C@H](NC(=O)CCCCCCCCCCCCCCCCC(=O)O)C(=O)O)C(N)=O [compound 386, *Asp;Lys;Tyr;Ser;Gly;NmLeu;Nle;NH2] ({C18 diacid-γGlu-AEEA-AEEA}-DKYSG[NMeL][Nle]-NH2) | – | 0% | – | 0% | 29 nM | 63% | – |
| CCCC[C@H](NC(=O)[C@H](CC(C)C)N(C)C(=O)CNC(=O)[C@@H](NC(=O)[C@H](Cc1ccc(I)cc1)NC(=O)[C@H](CCCCN)NC(=O)[C@H](CC(=O)O)NC(=O)COCCOCCNC(=O)COCCOCCNC(=O)CC[C@H](NC(=O)CCCCCCCCCCCCCCCCC(=O)O)C(=O)O)C(C)C)C(N)=O [compound 330, *Asp;Lys;4-I-Phe;Val;Gly;NmLeu;Nle;NH2] | – | 0% | ~170 nM | 40% | – | 0% | completely destroys NK2R activation |
| CCCC[C@H](NC(=O)[C@H](CC(C)C)N(C)C(=O)CNC(=O)[C@@H](NC(=O)[C@H](Cc1ccccc1)NC(=O)[C@H](CCCCN)NC(=O)[C@H](CCC(=O)O)NC(=O)COCCOCCNC(=O)COCCOCCNC(=O)CC[C@H](NC(=O)CCCCCCCCCCCCCCCCC(=O)O)C(=O)O)C(C)C)C(N)=O [compound 335, *Glu;Lys;Phe;Val;Gly;NmLeu;Nle;NH2] ({C18 diacid-γGlu-AEEA-AEEA}-EKFVG[NMeL][Nle]-NH2) | 113 nM | 100% | 36 nM | 70% and 72% | 1.6 nM | 80% | – |
